Read-outs that look alike come from different tables or passages of the source.
Columns and labels:
[1] = target: T1, H^+,K^+ adenosine triphosphatase (Sus scrofa, UniProt P19156); assay: H+,K+ adenosine triphosphatase inhibition (proton pump inhibition); type: biochemical, hog
T1 construct: hog stomach was homogenized and subjected to ultracentrifugation to obtain a microsome fraction; from tissue; host or cells: hog stomach, microsome fraction (discontinuous Ficoll gradient)
Method: Proton pump inhibition was evaluated by the H^+,K^+ adenosine triphosphatase (to be referred to as "H^+,K^+ ATPase" hereinafter)inhibition.
That is, hog stomach was homogenized and subjected to ultracentrifugation to obtain a microsome fraction, and the microsomes were subjected to discontinuous density gradient ultracentrifugation using 0 and 9% Ficoll solutions to obtain a fraction containing H^+,K^+ ATPase. The H^+,K^+ ATPase activity was determined by measuring the released inorganic phosphorus using ATP as the substrate and an inorganic phosphorus measuring reagent PiSET(IATRON) manufactured by IATRON.

gastric acid secretion = assay: Gastric acid secretion inhibition activity (pylorus-ligated, histamine-stimulated rats); type: in vivo, Sprague-Dawley (SD) male rats; conditions: Rattus norvegicus; 30 mg/kg oral; pylorus ligated 3 hours later; histamine hydrochloride 30 mg/kg s.c.; total acidity over 3 hours; read-out: Acid secretion inhibition rate (%)
Method: (Test Example 2) Gastric acid secretion inhibition activity
Basically according to the method of Satoh et (Journal of Pharmacology and Experimental Therapeutics, vol.248, pp.806-815, 1988), each of the compounds shown in Examples was orally administered at a dose of 30 mg/kg to Sprague-Dawley (SD) male rats which have been subjected to fasting of 24 hours (free drinking).
After 3 hours of the compound administration, the pylorus of each rat was ligated under urethane anesthesia, and 30 mg of histamine hydrochloride per Kg was administered to the rat by subcutaneous injection. After 3 hours of the ligation, the gastric juice was collected to measure its volume and calculate total acidity (mEqH^+ /3 hours) by sodium hydroxide titration. The inhibition rate (%) was calculated by the following formula in which A represents the total gastric juice acidity of control group rat and B represents the total gastric juice acidity of test compound-administered group rat. [formula]

Pylorus ligation ulcer = assay: Pylorus ligation ulcer; type: in vivo, Wistar male rats; conditions: Rattus norvegicus; oral, 14 hours after pylorus ligation; read-out: Antiulcer activity, Pylorus ligation ulcer, ED50 value
Method: (Test Example 4) Pylorus ligation ulcer
Basically according to the method of Shay et al. (Gastroenterology, vol.5, pp.43-61, 1945), each of the compounds shown in Examples was orally administered to Wistar male rats which have been subjected to fasting of 48 hours (free drinking). After 30 minutes of the compound administration,the pylorus of each rat was ligated.
After 14 hours of standing, the stomach was excised. The length and width of each ulcer developed in the fore-stomach part were measured under a stereoscopic microscope to calculate the ulcer area (length×width). In accordance with the method of Takagi et al. (Japan. J. Pharmacol., vol.24, pp.357-361, 1974), ulcer index was calculated based on the total ulcer area per animal. The dose of each test compound required to inhibit 50% of the ulcer index of the control group was calculated (ED50).

Acute toxicity test = conditions: mouse, in vivo; oral, mice, one week observation
Excerpt: (Test Example 6) Acute toxicity test
Each of the compounds shown in Examples was orally administered to three ICR male mice per group.

Stress ulcer = assay: Stress ulcer; type: in vivo, Wistar male rats; conditions: Rattus norvegicus; oral, 7 hours stress loading in water bath at 23° C.; read-out: Antiulcer activity, Stress ulcer, ED50 value
Method: (Test Example 3) Stress ulcer
Basically according to the method of Takagi et al. (Japanese Journal of Pharmacology (to be referred to as "Japan. J. Pharmacol." hereinafter), vol.18, pp.9-18, each of the compounds shown in Examples was orally administered to Wistar male rats which have been subjected to fasting of 24 hours (free drinking). Each rat was transferred into a stress cage 30 minutes thereafter and subjected to stress loading by suspending the cage in a water bath controlled at 23° C. to such a depth that the rat was soaked up to its breast.
After 7 hours of the stress loading, the rat was recovered from the water bath to excise the stomach. The length (mm) of each ulcer developed in the stomach was measured under a stereoscopic microscope, and the total length of ulcers per one animal was used as an ulcer index. The dose of each test compound required to inhibit 50% of the ulcer index of the control group was calculated (ED50). The results are shown in Table 3, together with the results of the following pylorus ligation ulcer test.

[2] = H+,K+ ATPase fraction from hog stomach microsomes, ATP substrate, released inorganic phosphorus, read-out: Enzyme inhibition IC50 value (converted)

T1 sequence (P19156 2-1034 limits assumed): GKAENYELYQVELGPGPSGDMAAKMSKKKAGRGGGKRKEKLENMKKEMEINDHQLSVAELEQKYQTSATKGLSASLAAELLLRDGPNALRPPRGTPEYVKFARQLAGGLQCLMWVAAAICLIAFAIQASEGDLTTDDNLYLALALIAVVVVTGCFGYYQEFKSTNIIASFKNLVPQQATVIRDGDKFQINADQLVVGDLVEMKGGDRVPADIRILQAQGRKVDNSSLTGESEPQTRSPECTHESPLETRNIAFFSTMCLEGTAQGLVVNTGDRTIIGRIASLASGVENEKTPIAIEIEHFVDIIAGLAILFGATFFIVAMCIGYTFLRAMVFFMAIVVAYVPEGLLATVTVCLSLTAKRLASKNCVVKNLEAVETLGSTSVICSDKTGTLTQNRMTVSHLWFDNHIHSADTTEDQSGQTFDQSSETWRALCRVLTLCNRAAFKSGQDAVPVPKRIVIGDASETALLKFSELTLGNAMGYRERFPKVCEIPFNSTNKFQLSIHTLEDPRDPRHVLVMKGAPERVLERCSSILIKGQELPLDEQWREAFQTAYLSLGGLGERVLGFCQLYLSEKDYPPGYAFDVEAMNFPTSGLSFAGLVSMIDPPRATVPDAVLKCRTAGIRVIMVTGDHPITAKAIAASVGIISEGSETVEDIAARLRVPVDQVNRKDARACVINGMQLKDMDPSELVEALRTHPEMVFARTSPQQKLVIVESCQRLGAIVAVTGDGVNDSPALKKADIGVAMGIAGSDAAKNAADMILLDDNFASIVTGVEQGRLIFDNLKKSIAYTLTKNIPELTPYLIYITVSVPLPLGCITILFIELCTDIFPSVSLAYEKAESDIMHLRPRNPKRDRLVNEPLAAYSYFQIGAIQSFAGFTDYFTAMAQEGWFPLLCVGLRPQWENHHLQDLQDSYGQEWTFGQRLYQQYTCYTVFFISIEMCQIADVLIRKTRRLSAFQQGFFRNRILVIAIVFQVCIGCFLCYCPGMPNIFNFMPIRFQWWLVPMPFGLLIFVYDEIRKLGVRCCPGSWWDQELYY
T1 sequence (P18434 whole entry partner): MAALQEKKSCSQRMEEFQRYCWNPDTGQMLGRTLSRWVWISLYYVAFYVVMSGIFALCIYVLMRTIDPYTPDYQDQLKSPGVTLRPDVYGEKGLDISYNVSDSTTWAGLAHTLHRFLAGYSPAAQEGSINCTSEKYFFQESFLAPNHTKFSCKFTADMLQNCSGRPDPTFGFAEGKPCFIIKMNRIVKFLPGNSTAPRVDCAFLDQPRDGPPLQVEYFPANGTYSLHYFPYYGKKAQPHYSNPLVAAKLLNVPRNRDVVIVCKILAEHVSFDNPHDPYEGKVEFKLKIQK

SMILES	IC50 [1, 2] [µM]	inhibition in vivo at 30 mg/kg (gastric acid secretion) [%]	also measured
CCC(C#Cc1nc2ccccc2nc1C#CC(CC)OCCC(=O)OC)OCCC(=O)OC (stereo not shown) [Example 123]	87.9		
CCCOCC#Cc1nc(C(=O)OC)c(C(=O)OC)nc1C#CCOCCC [Example 1, 5,6-bis(3-n-propoxy-1-propynyl)pyrazine-2,3-dicarboxylic acid dimethyl ester]	87.5	50	ED50 (Pylorus ligation ulcer): 28 mg/kg; LD50 at 168 h (Acute toxicity test): > 1000 mg/kg
CCOC(C)C#Cc1nc2cccc(OC)c2nc1C#CC(C)OCC (stereo not shown) [Example 140]	34		
CCCCC#Cc1nc(C#N)c(C#N)nc1C(F)(F)F [Example 102]			IC50 [1]: 3.95 µM
CCCOCC#Cc1nc(C(=O)O)c(C(=O)O)nc1C#CCOCCC [Example 5, 5,6-bis(3-n-propoxy-1-propynyl)pyrazine-2,3-dicarboxylic acid]		61	
COCCCC#Cc1nc(C(=O)OC)c(C(=O)OC)nc1C#CCCCOC [Example 2, 5,6-bis(5-methoxy-1-pentynyl)pyrazine-2,3-dicarboxylic acid dimethyl ester]		66	ED50 (Stress ulcer): 60 mg/kg; ED50 (Pylorus ligation ulcer): 66 mg/kg; LD50 at 168 h (Acute toxicity test): > 1000 mg/kg
CCCC#Cc1nc(C#N)c(C#N)nc1C#CCCOC [Example 77]	1.44	55	
CCCOCCOC(C)(C)C#Cc1nc2ccccc2nc1C#CC(C)(C)OCCOCCC [Example 158, 2,3-bis(3-(2-n-propoxyethoxy)-3-methyl-1-butynyl)quinoxaline]	17.1		
CCOCCOC(C)(C)C#Cc1nc2ccc(Cl)cc2nc1C#CC(C)(C)OCCOCC [Example 159, 6-chloro-2,3-bis(3-(2-ethoxyethoxy)-3-methyl-1-butynyl)quinoxaline]	16.7		
CCOC(C)C#Cc1nc2ccccc2nc1Cl (stereo not shown) [Example 29, 2-chloro-3-(3-ethoxy-1-butynyl)quinoxaline]	215		
CCC(C#Cc1cnc2ccccc2n1)OCCOC (stereo not shown) [Example 127]	326		
CCC#Cc1nc(C(=O)OC)c(C(=O)OC)nc1C#CC(C)OC (stereo not shown) [Example 62]	5.15	69	
COC(C)C#Cc1nc2ccccc2nc1C#CC(C)OC (stereo not shown) [Example 111]	9.17		
CCOC(C)C#Cc1nc2cc(OC)c(OC)cc2nc1C#CC(C)OCC (stereo not shown) [Example 145]	25.1		
CCOCCO[C@@H](C#Cc1nc2ccccc2nc1C#C[C@@H](CC)OCCOCC)CC [Example 23, 2,3-bis((R)-3-(2-ethoxyethoxy)-1-pentynyl)quinoxaline]	54.7		
CCOCCO[C@H](C#Cc1nc2ccccc2nc1C#C[C@@H](CC)OCCOCC)CC [Example 25, 2-((R)-3-(2-ethoxyethoxy)-1-pentynyl)-3-((S)-3-(2-ethoxyethoxy)-1-pentynyl)quinoxaline]	34.2		
COC(=O)c1nc(C#CC(C)OC)c(C#CC(C)OC)nc1C(=O)OC (stereo not shown) [Example 53]	5.27		
CCOC(C)(C)C#Cc1nc2ccccc2nc1C#CC(C)(C)OCC [Example 13, 2,3-bis(3-ethoxy-3-methyl-1-butynyl)quinoxaline]	31.4		
CCCCC#Cc1nc(C#N)c(C#N)nc1C#CCCCC [Example 89]	0.344		
COC1(C#Cc2nc3ccccc3nc2C#CC2(OC)CCCC2)CCCC1 [Example 26, 2,3-bis(2-(1-methoxycyclopentyl)ethynyl)quinoxaline]	32		
CCC(C#Cc1nc2cccc(C)c2nc1C#CC(CC)OCCOC)OCCOC (stereo not shown) [Example 144]	28.3		

SMILES	IC50 [1, 2] [µM]	inhibition in vivo at 30 mg/kg (gastric acid secretion) [%]	also measured
COCCC#Cc1nc2ccccc2nc1C#CCCOC [Example 12, 2,3-bis(4-methoxy-1-butynyl)quinoxaline]	279	41	ED50 (Stress ulcer): 24 mg/kg; LD50 at 168 h (Acute toxicity test): > 1000 mg/kg
CC[C@H](C#Cc1nc2ccccc2nc1C#C[C@@H](CC)OCCOC)OCCOC [Example 19, 2,3-bis((R)-3-(2-methoxyethoxy)-1-pentynyl)quinoxaline]		28	
COCC#Cc1nc2ccccc2nc1C#CCOC [Example 107]			ED50 (Stress ulcer): 29 mg/kg; ED50 (Pylorus ligation ulcer): 30 mg/kg
CCOC(C#Cc1nc2ccccc2nc1C#CC(CC)OCC)CC (stereo not shown) [Example 115]			LD50 at 168 h (Acute toxicity test): > 1000 mg/kg
CCOC(=O)c1nc(C#CCOC)c(C#CCOC)nc1C(=O)OCC [Example 69]		70	
COC(=O)c1nc(C#CC(OC)OC)c(C#CC(OC)OC)nc1C(=O)OC [Example 59]	8.92	79	ED50 (Stress ulcer): 18 mg/kg; ED50 (Pylorus ligation ulcer): 21 mg/kg; LD50 at 168 h (Acute toxicity test): > 1000 mg/kg
CCCCC#Cc1nc(C#N)c(C#N)nc1C(=O)OCC [Example 101]			IC50 [1]: 5.31 µM
CSCCC#Cc1nc(C#N)c(C#N)nc1C#CCCSC [Example 95]	0.613		
CC[C@@H](C#Cc1nc2ccccc2nc1C#C[C@@H](CC)OCCOC)OCCOC [Example 21, 2-((R)-3-(2-methoxyethoxy)-1-pentynyl)-3-((S)-3-(2-methoxyethoxy)-1-pentynyl)quinoxaline]	102		
CCOC(C)C#Cc1nc2ccc(OC)cc2nc1C#CC(C)OCC (stereo not shown) [Example 129]	25.3		
CCOCCOC(C#Cc1nc2ccc(CO)cc2nc1C#CC(CC)OCCOCC)CC (stereo not shown) [Example 151]	18.6		
COCCOC(C)C#Cc1nc(C(=O)OC)c(C(=O)OC)nc1C#CC(C)OCCOC (stereo not shown) [Example 56]	13.4	80	ED50 (Stress ulcer): 12 mg/kg; ED50 (Pylorus ligation ulcer): 17 mg/kg
CCOC(C)C#Cc1nc2ccc(C(C)=O)cc2nc1C#CC(C)OCC (stereo not shown) [Example 33, 6-acetyl-2,3-bis(3-ethoxy-1-butynyl)quinoxaline]	9.88	23	
CCOCCOC(C)C#Cc1nc2ccccc2nc1C#CC(C)OCCOCC (stereo not shown) [Example 113]			LD50 at 168 h (Acute toxicity test): > 1000 mg/kg
COC(C)C#Cc1nc(C#N)c(C#N)nc1C#CC(C)OC (stereo not shown) [Example 73]	1.7		
COCCOCC#Cc1nc2ccccc2nc1C(C)(C)C [Example 30, 2-t-butyl-3-(3-(2-methoxyethoxy)-1-propynyl)quinoxaline]			IC50 [1]: 60.3 µM
CCOCCO[C@H](C#Cc1nc2ccccc2nc1C#C[C@H](CC)OCCOCC)CC [Example 22, 2,3-bis((S)-3-(2-ethoxyethoxy)-1-pentynyl)quinoxaline]	29.6		
CCCC#Cc1nc(C#N)c(C#N)nc1C#CCOC [Example 81]		61	IC50 [1]: 1.51 µM; ED50 (Stress ulcer): 42 mg/kg; ED50 (Pylorus ligation ulcer): 5.2 mg/kg; LD50 at 168 h (Acute toxicity test): > 1000 mg/kg
COCCOCC#Cc1nc2ccc(OC)cc2nc1C#CCOCCOC [Example 133]	20.8	44	
CCOCC#Cc1nc2ccccc2nc1C#CCOCC [Example 108]			LD50 at 168 h (Acute toxicity test): > 1000 mg/kg
CC[C@@H](C#Cc1nc2ccccc2nc1C#C[C@H](CC)OCCOC)OCCOC [Example 18, 2,3-bis((S)-3-(2-methoxyethoxy)-1-pentynyl)quinoxaline]	124		

Source: patent publication US5583227A, “Antiulcer compounds having a substituted alkynyl or quinoxaline nucleus and methods of making thereof” (Mochida Pharmaceutical Co. Ltd., priority 1994, dated 1996)
